Source: US5336686A, “17 Methylene lactones of steroids” (Roussel-Uclaf, priority 1992, dated 1994)

Columns and labels:
[1] = target: T1, Glucocorticoid Receptor of Rat's Thymus (Rattus norvegicus, UniProt P06536); assay: Glucocorticoid receptor of rat's thymus, relative bond affinity (RBA); type: binding; details: vs tritiated dexamethasone; for relative bond affinity (RBA), Glucocorticoid, 4 H: incubation 4 H at 0° C.; for relative bond affinity (RBA), Glucocorticoid, 24 H: incubation 24 H at 0° C.
T1 construct: The thymuses were removed and homogenized at 0° C; from tissue; host or cells: thymus of adrenalectomized male Sprague-Dawley rats, 105,000 g supernatant (cytosol)
T1 sequence (P06536 1-795): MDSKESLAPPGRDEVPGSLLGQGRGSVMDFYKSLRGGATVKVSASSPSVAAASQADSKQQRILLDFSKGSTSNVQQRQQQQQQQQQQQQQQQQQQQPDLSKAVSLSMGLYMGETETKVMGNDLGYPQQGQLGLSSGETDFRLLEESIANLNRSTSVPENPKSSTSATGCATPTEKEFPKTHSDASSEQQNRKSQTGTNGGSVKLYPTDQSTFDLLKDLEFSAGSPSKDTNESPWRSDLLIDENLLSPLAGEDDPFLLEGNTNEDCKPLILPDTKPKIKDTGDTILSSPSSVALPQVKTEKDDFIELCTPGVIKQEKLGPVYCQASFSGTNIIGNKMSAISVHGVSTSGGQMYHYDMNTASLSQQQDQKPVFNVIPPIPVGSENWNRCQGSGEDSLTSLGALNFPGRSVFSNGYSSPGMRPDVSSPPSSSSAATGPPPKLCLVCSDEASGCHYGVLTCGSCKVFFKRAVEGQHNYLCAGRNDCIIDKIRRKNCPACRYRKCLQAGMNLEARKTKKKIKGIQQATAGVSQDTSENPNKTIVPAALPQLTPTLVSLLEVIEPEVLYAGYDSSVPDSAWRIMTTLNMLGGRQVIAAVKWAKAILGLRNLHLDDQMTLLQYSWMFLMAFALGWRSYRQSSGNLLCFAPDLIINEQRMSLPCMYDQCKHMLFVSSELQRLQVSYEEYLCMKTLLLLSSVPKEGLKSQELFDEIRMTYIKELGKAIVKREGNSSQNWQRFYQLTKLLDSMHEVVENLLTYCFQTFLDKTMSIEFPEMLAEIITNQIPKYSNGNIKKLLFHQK
Experimental: Male Sprague-Dawley EOPS rats weighing 160 to 200 g were suprarenalectomized and 4 to 8 days after this removal, the animals were killed. The thymuses were removed and homogenized at 0° C. in a 10 mM Tris, 0.15M saccharose, 2 mM dithiothreitol, HCl pH 7.4 buffer using a Potter polytetra-fluoroethylene flask (1 g of tissue per 10 ml of TS). The homogenate was ultracentrifuged (105,000 g×90 min) at 0° C. and the aliquots of the supernatant were incubated at 0° C. for a time (t) with a constant concentration (T) of tritiated dexamethasone in the presence of increasing concentrations (0-2,500×10^-9 M)either of cold dexamethasone, or the cold product to be tested. The concentration of the bound tritiated dexamethasone (B) was measured in each incubate by the technique of adsorption with carbon dextran.
(§1) The calculation of the relative bond affinity (RBA) was identical for both receptors.
(§2) The following 2 curves were drawn: the percentage of bound tritiated hormone B/T as a function of the logarithm of the concentration of the cold reference hormone and B/T as a function of the logarithm of the concentration of the cold tested product. The straight line of the equation [formula] was determined. B/T max=Percentage of bound tritiated hormone for an incubation of this tritiated hormone at the concentration (T).
(§3) B/T min=Percentage of the bound tritiated hormone for an incubation of this tritiated hormone at the concentration (T) in the presence of a large excess of cold hormone (2,500×10^-9 M).
(§4) The intersections of the straight line I50 and the curves enabled the concentrations of cold reference hormone (CH) and cold tested product (CX) which inhibited the bonding of the tritiated hormone on the receptor by 50% to be evaluated.
(§5) The relative bond affinity (RBA) of the tested product was determined by the equation: [formula]

[2] = target: T2, Progestogen Receptor of Rabbit's Uterus (Oryctolagus cuniculus, UniProt P06186); assay: Progestogen receptor of rabbit's uterus, relative bond affinity (RBA); type: binding; details: vs tritiated Product R; for relative bond affinity (RBA), Progestogen, 2 H: incubation 2 H at 0° C.; for relative bond affinity (RBA), Progestogen, 24 H: incubation 24 H at 0° C.
T2 construct: The uteri were removed, weighed and homogenized at 0° C; from tissue; host or cells: uterus of estradiol-treated impubic rabbits, 105,000 g supernatant (cytosol)
T2 sequence (P06186 1-930): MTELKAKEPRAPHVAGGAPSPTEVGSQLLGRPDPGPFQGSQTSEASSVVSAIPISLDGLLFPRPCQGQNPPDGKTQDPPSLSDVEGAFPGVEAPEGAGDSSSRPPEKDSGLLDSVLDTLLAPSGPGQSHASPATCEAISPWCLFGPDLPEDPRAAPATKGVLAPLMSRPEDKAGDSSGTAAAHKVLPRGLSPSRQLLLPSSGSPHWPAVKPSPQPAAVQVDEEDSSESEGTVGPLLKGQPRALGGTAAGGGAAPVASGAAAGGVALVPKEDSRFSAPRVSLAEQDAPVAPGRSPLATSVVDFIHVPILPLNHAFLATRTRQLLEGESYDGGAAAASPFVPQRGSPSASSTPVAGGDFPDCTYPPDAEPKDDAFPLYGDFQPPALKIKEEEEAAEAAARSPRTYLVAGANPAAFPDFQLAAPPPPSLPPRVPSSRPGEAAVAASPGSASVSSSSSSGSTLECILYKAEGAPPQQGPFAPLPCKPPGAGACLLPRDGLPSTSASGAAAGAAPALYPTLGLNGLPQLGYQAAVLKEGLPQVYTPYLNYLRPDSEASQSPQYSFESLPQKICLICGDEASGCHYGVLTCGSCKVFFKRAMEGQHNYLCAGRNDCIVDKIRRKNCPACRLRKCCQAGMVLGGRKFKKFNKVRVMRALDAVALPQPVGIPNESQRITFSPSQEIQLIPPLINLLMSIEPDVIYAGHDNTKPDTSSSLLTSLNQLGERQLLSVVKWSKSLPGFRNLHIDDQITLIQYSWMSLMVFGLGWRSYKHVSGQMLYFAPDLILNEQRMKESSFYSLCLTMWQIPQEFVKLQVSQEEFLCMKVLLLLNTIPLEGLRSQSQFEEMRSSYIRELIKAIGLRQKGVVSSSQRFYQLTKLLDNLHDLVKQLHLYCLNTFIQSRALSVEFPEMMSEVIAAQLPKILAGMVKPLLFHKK
Experimental: Impubic rabbits weighing about 1 kg received a cutaneous application of […] of estradiol and 5 days after this treatment, the animals were killed. The uteri were removed, weighed and homogenized at 0° C., using a Potter teflon flask in a buffered TS solution (10 mM Tris, 0.25 M saccharose, HCl pH 7.4) (1 g of tissue per 50 ml of TS). The homogenate was then ultracentrifuged (105,000 g×90 min) at 0° C. The aliquots of the supernatant were incubated at 0° C. for a time t, with a constant concentration (T) of tritiated Product R (17,21-dimethyl-19-nor-Δ^4,9 -pregnadiene-3,20-dione) in the presence of increasing concentrations (0-2,500×10^-9 M) either of cold R, or of cold progesterone, or of cold product to be tested. The concentration of bound tritiated R (B) was then measured in each incubate by the technique of adsorption with carbon dextran.
as §1, §2, §3, §4, §5

[3] = test system: Thymocytes of suprarenalectomized rats; assay: Antiglucocorticoid activity: tritiated uridine incorporation in thymocytes with dexamethasone; type: cell-based, rat; details: for inhibition at 1 µM / inhibition at 0.1 µM / inhibition at 0.01 µM: Rattus norvegicus, Thymocyte, 5.10^-8 M dexamethasone, 37° C., 3 hours, read-out: % inhibition of the effect of the Dexamethasone; for inhibition at 1 µM: product at 10^-6 M; for inhibition at 0.1 µM: product at 10^-7 M; for inhibition at 0.01 µM: product at 10^-8 M
Experimental: The technique used was derived from the method of Dausse et al, Molecular Pharmacology, Vol. 13, p. 948-955 (1977) ("the relationship between glucocorticoid structure and effects upon Thymocytes"), for the thymocytes of mice. Thymocytes of suprarenalectomized rats were incubated at 37° C. for 3 hours in a nutritive medium containing 5.10^-8 M of dexamethasone in the presence or not of a product to be studied at different concentrations. Tritiated uridine was added, and the incubation was continued for one hour. The incubates were cooled, treated with a 5% solution of trichloroacetic acid, filtered on Whatman GF/A paper and washed three times using a solution of 5% trichloroacetic acid. The radioactivity retained by the filter paper was determined.

## C=C1C[C@@]2(CC[C@H]3[C@@H]4CCC5=CC(=O)CCC5=C4[C@@H](c4ccc(N(C)C)cc4)C[C@@]32C)OC1=O [Example 1, γ-lactone of 11β-[4-(dimethylamino)phenyl] 21-methylene 19-nor 17α-Δ^4,9-pregnadiene-17β-ol-3-one-21-carboxylic acid]
[1]
  relative bond affinity (RBA), Glucocorticoid, 4 H: 135
  relative bond affinity (RBA), Glucocorticoid, 24 H: 94
[2]
  relative bond affinity (RBA), Progestogen, 2 H: 32
  relative bond affinity (RBA), Progestogen, 24 H: 21
[3]
  inhibition at 1 µM: 116%
  inhibition at 0.1 µM: 104%
  inhibition at 0.01 µM: 71%

## C=C1C[C@]2(CC[C@H]3[C@@H]4CCC5=CC(=O)CCC5=C4[C@@H](c4ccc(N(C)C)cc4)C[C@@]32C)OC1=O [Example 2, γ-Lactone of 11β-[4-(dimethylamino)phenyl]21methylene-19-nor 17β-Δ^4,9-pregnadiene-17α-ol-3-one-21-carboxylic acid]
[1]
  relative bond affinity (RBA), Glucocorticoid, 4 H: 136
  relative bond affinity (RBA), Glucocorticoid, 24 H: 59
[2]
  relative bond affinity (RBA), Progestogen, 2 H: 86
  relative bond affinity (RBA), Progestogen, 24 H: 36

## C=C1C[C@@]2(CC[C@H]3[C@@H]4CCC5=CC(=O)CCC5=C4[C@@H](c4ccc(SC)cc4)C[C@@]32C)OC1=O [Example 3, γ-lactone of 11β-[4-(methylthio)phenyl]21-methylene 19-nor-17α-Δ^4,9-pregnadiene-17β-ol-3-one-21-carboxylic acid]
[3]
  inhibition at 1 µM: 133%
  inhibition at 0.1 µM: 69%
  inhibition at 0.01 µM: 24%

## C[C@@H]1C[C@H]2[C@@H]3CCC4=CC(=O)C=C[C@]4(C)[C@@]3(F)[C@@H](O)C[C@]2(C)[C@@]1(O)C(=O)CO [dexamethasone, reference compound]
[3]; effect of dexamethasone itself, in words
  incorporation of tritiated uridine: decrease
